In paper PMC7127349 (Bioorganic & Medicinal Chemistry Letters, 2018):

B1: Urtica dioica agglutinin (protein, UniProt P11218 24-372, looked up)
Lectin/endochitinase 1: QRCGSQGGGGTCPALWCCSIWGWCGDSEPYCGRTCENKCWSGERSDHRCGAAVGNPPCGQDRCCSVHGWCGGGNDYCSGSKCQYRCSSSVRGPRVALSGNSTANSIGNVVVTEPLFDQMFSHRKDCPSQGFYSYHSFLVAAESFPAFGTIGDVATRKREVAAFLAHISQATSGERSDVENPHAWGLCHINTTTVTENDFCTSSDWPCAAGKKYSPRGPIQLTHNFNYGLAGQAIGEDLIQNPDLVEKDPIISFKTALWFWMSQHDNKPSCHDIVLNANSAANRIPNKGVIGNIISRAFGHDDFAVRSSSIGFYKRYCDMLGVSYGHDLKYWFDNTPSSEFQRIQMRVAA

Test system: human coronavirus (229E)
Assay type: cell-based

| Molecule | activity against human coronavirus (229E) lower than the activity observed with UDA | EC50 (read-out: EC50 Human Coronavirus (229E)) [nM] |
| --- | --- | --- |
| CCOC(=O)C1(Cc2ccccc2)CN(c2ccccc2)Cc2nnn(Cc3ccc(F)cc3)c21 (stereo not drawn) [Compound 14d] | approximately 50 fold |  |
| CCOC(=O)C1(Cc2ccccc2)CN(c2ccccc2)Cc2nnn(CCc3cc4ccccc4[nH]3)c21 (stereo not drawn) [Compound 14n] | approximately 50 fold |  |
| CCOC(=O)C1(Cc2ccc(F)cc2)CN(c2ccccc2)Cc2nnn(Cc3ccc(Cl)c(Cl)c3)c21 (stereo not drawn) [Compound 14q] | approximately 50 fold |  |
| COc1ccc(CCn2nnc3c2CCN(c2ccc(C(F)(F)F)cc2)C3)cc1 [Compound 18f] | approximately 50 fold |  |
| Fc1cccc(Cn2nnc3c2CCN(c2ccc(C(F)(F)F)cc2)C3)c1 [Compound 18i] | approximately 50 fold |  |
| B1 |  | 200 |
